Assay results from publication PMC9090415, “Discovery of small molecule inhibitors of Plasmodium falciparum apicoplast DNA polymerase” (Journal of Enzyme Inhibition and Medicinal Chemistry, 2022).

Molecular target: P. falciparum apicoplast DNA polymerase (Pf-apPOL) (Plasmodium falciparum, UniProt Q8ILY1)
Test: Fluorescence-based high-throughput DNA polymerase assay (molecular beacon), primary screen and dose-response
Type: biochemical
Conditions: for IC50: supplemental file 2, sheet IC50 nontoxic compounds, Pf-apPOL; for DNA Pol: unit not given, 90 min, 10 µM
In short: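 Single-point screening used 10 µM compound with 20 nM polymerase, 20 nM hairpin substrate and 6 µM dNTPs for 90 min at 25 °C. Confirmatory titrations (2.5–80 µM) followed fluorescence at three times, and IC50 was derived from a fit including a cooperativity term n.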

[1] = DRC-2, 40', concentration 5 (unit not given)
[2] = DRC-2, 40', concentration 20 (unit not given)

Chain of P. falciparum apicoplast DNA polymerase (Pf-apPOL) (Q8ILY1 entry or part of it): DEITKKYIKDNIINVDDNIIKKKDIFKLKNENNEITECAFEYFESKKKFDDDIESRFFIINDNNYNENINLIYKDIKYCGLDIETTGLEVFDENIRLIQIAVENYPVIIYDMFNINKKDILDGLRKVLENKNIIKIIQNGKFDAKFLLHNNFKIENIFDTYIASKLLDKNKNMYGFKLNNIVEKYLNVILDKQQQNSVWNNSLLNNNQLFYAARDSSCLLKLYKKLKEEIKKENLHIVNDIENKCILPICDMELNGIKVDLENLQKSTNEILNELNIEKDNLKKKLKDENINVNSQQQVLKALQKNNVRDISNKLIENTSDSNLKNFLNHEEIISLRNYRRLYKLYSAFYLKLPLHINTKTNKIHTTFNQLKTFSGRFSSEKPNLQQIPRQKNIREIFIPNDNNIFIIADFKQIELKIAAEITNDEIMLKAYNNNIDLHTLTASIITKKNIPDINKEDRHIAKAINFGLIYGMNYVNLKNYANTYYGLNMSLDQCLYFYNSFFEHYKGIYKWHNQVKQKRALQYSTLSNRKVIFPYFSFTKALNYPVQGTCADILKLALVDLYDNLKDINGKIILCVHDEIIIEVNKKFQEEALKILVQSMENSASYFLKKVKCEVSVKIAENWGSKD

Work on `COc1cccc(Oc2c(C(F)(F)F)oc3cc(OC(=O)N(C)C)ccc3c2=O)c1` [Molecule 52] yielded an IC50 of 40.6 µM.

For `O=c1cc(CN2CCCCC2)c2cc3c(cc2o1)OCO3` [Molecule 56, O=c1cc(CN2CCCCC2)c2c(o1)cc1c(c2)OCO1], the “DNA Pol” value ('DNA Pol' of the 186 hits list (primary screen result)) was 34, the “% inhibition Apo pol 10'” value (DRC-1, concentration 2.5) was -1.492% and the “% inhibition Apo pol 10'” value (DRC-1, concentration 5) was 3.303%. For the same compound, the “% inhibition Apo pol 10'” value (DRC-1, concentration 10) was 19.9772%, the “% inhibition Apo pol 10'” value (DRC-1, concentration 20) was 32.3483% and the “% inhibition Apo pol 10'” value (DRC-1, concentration 40) was 45.3079%. The “% inhibition Apo pol 10'” value (DRC-1, concentration 80) was 89.8826%, the “% inhibition Apol 90'” value (DRC-1, 90', concentration 2.5) was 2.551% and the “% inhibition Apol 90'” value (DRC-1, 90', concentration 5) was 7.455%. For the same compound, the “% inhibition Apol 90'” value (DRC-1, 90', concentration 10) was 24.7772%, the “% inhibition Apol 90'” value (DRC-1, 90', concentration 20) was 41.1965% and the “% inhibition Apol 90'” value (DRC-1, 90', concentration 40) was 58.3854%. For the same compound, the “% inhibition Apol 90'” value (DRC-1, 90', concentration 80) was 90.5438%, the “% inhibition apPOL 180'” value (DRC-1, 180', concentration 2.5) was 3.723% and the “% inhibition apPOL 180'” value (DRC-1, 180', concentration 5) was 9.055%. The “% inhibition apPOL 180'” value (DRC-1, 180', concentration 10) was 32.8614%, the “% inhibition apPOL 180'” value (DRC-1, 180', concentration 20) was 57.3951% and the “% inhibition apPOL 180'” value (DRC-1, 180', concentration 40) was 81.7381%. For the same compound, the “% inhibition apPOL 180'” value (DRC-1, 180', concentration 80) was 95.8992%, the “% inhibition Apo pol 5'” value (DRC-2, 5', concentration 10 (unit not given)) was 21% and the “% inhibition Apol 40'” value (DRC-2, 40', concentration 2.5 (unit not given)) was 8%. For the same compound, the “% inhibition Apol 40'” value [1] was 4%, the “% inhibition Apol 40'” value [2] was 39% and the “% inhibition Apol 40'” value (DRC-2, 40', concentration 80 (unit not given)) was 68%. For the same compound, the “% inhibition ApPOL 90'” value (DRC-2, 90', concentration 20 (unit not given)) was 39%, the “% inhibition ApPOL 90'” value (DRC-2, 90', concentration 80 (unit not given)) was 68% and the “% inhibition apPOL 180'” value (DRC-2, 180', concentration 10 (unit not given)) was 21%. For the same compound, the “% inhibition Apo pol 5'” value (DRC-2, 5', concentration 2.5) was 5.61%, the “% inhibition Apo pol 5'” value (DRC-2, 5', concentration 5) was 6% and the “% inhibition Apo pol 5'” value (DRC-2, 5', concentration 10) was 21%. The “% inhibition Apo pol 5'” value (DRC-2, 5', concentration 20) was 35%, the “% inhibition Apo pol 5'” value (DRC-2, 5', concentration 40) was 50% and the “% inhibition Apo pol 5'” value (DRC-2, 5', concentration 80) was 60%. The “% inhibition Apol 40'” value (DRC-2, 40', concentration 2.5) was 8%, the “% inhibition Apol 40'” value (DRC-2, 40', concentration 5) was 4% and the “% inhibition Apol 40'” value (DRC-2, 40', concentration 10) was 26%. For the same compound, the “% inhibition Apol 40'” value (DRC-2, 40', concentration 20) was 39%, the “% inhibition Apol 40'” value (DRC-2, 40', concentration 40) was 54% and the “% inhibition Apol 40'” value (DRC-2, 40', concentration 80) was 68%. For the same compound, the “% inhibition ApPOL 90'” value (DRC-2, 90', concentration 2.5) was 8%, the “% inhibition ApPOL 90'” value (DRC-2, 90', concentration 2.5 (unit not given)) was 8% and the “% inhibition ApPOL 90'” value (DRC-2, 90', concentration 5) was -0.711%. The “% inhibition ApPOL 90'” value (DRC-2, 90', concentration 10) was 27%, the “% inhibition ApPOL 90'” value (DRC-2, 90', concentration 20) was 39% and the “% inhibition ApPOL 90'” value (DRC-2, 90', concentration 40) was 53%. For the same compound, the “% inhibition ApPOL 90'” value (DRC-2, 90', concentration 80) was 68%, the “% inhibition apPOL 180'” value (DRC-2, 180', concentration 2.5) was 4% and the “% inhibition apPOL 180'” value (DRC-2, 180', concentration 2.5 (unit not given)) was 4%. For the same compound, the “% inhibition apPOL 180'” value (DRC-2, 180', concentration 5) was -66%, the “% inhibition apPOL 180'” value (DRC-2, 180', concentration 10) was 21% and the “% inhibition apPOL 180'” value (DRC-2, 180', concentration 20) was 32%. For the same compound, the “% inhibition apPOL 180'” value (DRC-2, 180', concentration 40) was 45%, the “% inhibition apPOL 180'” value (DRC-2, 180', concentration 80) was 64% and the “DNA Pol” value (primary screen value of the library well) was 34.

With `Cc1ccc(-n2nnc(C(=O)O)c2-c2ccccn2)c(F)c1` [Molecule 54] the IC50 was 14.5 µM.

In the case of `CCCCCCCCCCCCCCCCCC(=O)CCN(C)C` [KU0271928], the “% inhibition Apo pol 10'” value (DRC-1, concentration 2.5) is reported as 4.376%, the “% inhibition Apo pol 10'” value (DRC-1, concentration 5) is reported as 8.002% and the “% inhibition Apo pol 10'” value (DRC-1, concentration 10) is reported as 14.7164%. The “% inhibition Apo pol 10'” value (DRC-1, concentration 20) was 22.8957%, the “% inhibition Apo pol 10'” value (DRC-1, concentration 40) was 29.808% and the “% inhibition Apo pol 10'” value (DRC-1, concentration 80) was 46.1524%. For the same compound, the “% inhibition Apol 90'” value (DRC-1, 90', concentration 2.5) was 3.047%, the “% inhibition Apol 90'” value (DRC-1, 90', concentration 5) was 4.9355% and the “% inhibition Apol 90'” value (DRC-1, 90', concentration 10) was 15.0466%. The “% inhibition Apol 90'” value (DRC-1, 90', concentration 20) was 24.954%, the “% inhibition Apol 90'” value (DRC-1, 90', concentration 40) was 42.2957% and the “% inhibition Apol 90'” value (DRC-1, 90', concentration 80) was 71.469%. The “% inhibition apPOL 180'” value (DRC-1, 180', concentration 2.5) was 2.105%, the “% inhibition apPOL 180'” value (DRC-1, 180', concentration 5) was 0.02519% and the “% inhibition apPOL 180'” value (DRC-1, 180', concentration 10) was 10.3787%. For the same compound, the “% inhibition apPOL 180'” value (DRC-1, 180', concentration 20) was 23.1469%, the “% inhibition apPOL 180'” value (DRC-1, 180', concentration 40) was 44.4373% and the “% inhibition apPOL 180'” value (DRC-1, 180', concentration 80) was 80.1406%. The “% inhibition Apol 40'” value [1] was 4%, the “% inhibition Apol 40'” value [2] was 13% and the “% inhibition apPOL 180'” value (DRC-2, 180', concentration 5 (unit not given)) was 4%. For the same compound, the “% inhibition apPOL 180'” value (DRC-2, 180', concentration 20 (unit not given)) was 13%, the “% inhibition Apo pol 5'” value (DRC-2, 5', concentration 2.5) was 0.736% and the “% inhibition Apo pol 5'” value (DRC-2, 5', concentration 5) was 1.37%. For the same compound, the “% inhibition Apo pol 5'” value (DRC-2, 5', concentration 10) was 2.68%, the “% inhibition Apo pol 5'” value (DRC-2, 5', concentration 20) was 5.52% and the “% inhibition Apo pol 5'” value (DRC-2, 5', concentration 40) was 18%. For the same compound, the “% inhibition Apo pol 5'” value (DRC-2, 5', concentration 80) was 37%, the “% inhibition Apol 40'” value (DRC-2, 40', concentration 2.5) was 2.22% and the “% inhibition Apol 40'” value (DRC-2, 40', concentration 5) was 4%. For the same compound, the “% inhibition Apol 40'” value (DRC-2, 40', concentration 10) was 4.59%, the “% inhibition Apol 40'” value (DRC-2, 40', concentration 20) was 13% and the “% inhibition Apol 40'” value (DRC-2, 40', concentration 40) was 28%. For the same compound, the “% inhibition Apol 40'” value (DRC-2, 40', concentration 80) was 61%, the “% inhibition ApPOL 90'” value (DRC-2, 90', concentration 2.5) was 1.86% and the “% inhibition ApPOL 90'” value (DRC-2, 90', concentration 5) was 3.32%. The “% inhibition ApPOL 90'” value (DRC-2, 90', concentration 10) was 2.69%, the “% inhibition ApPOL 90'” value (DRC-2, 90', concentration 20) was 12% and the “% inhibition ApPOL 90'” value (DRC-2, 90', concentration 40) was 30%. The “% inhibition ApPOL 90'” value (DRC-2, 90', concentration 80) was 67%, the “% inhibition apPOL 180'” value (DRC-2, 180', concentration 2.5) was 1.53% and the “% inhibition apPOL 180'” value (DRC-2, 180', concentration 5) was 4%. The “% inhibition apPOL 180'” value (DRC-2, 180', concentration 10) was 2.45%, the “% inhibition apPOL 180'” value (DRC-2, 180', concentration 20) was 13% and the “% inhibition apPOL 180'” value (DRC-2, 180', concentration 40) was 31%. The “% inhibition apPOL 180'” value (DRC-2, 180', concentration 80) was 73%, the “DNA Pol” value (primary screen value of the 186 hits) was 46 and the “DNA Pol” value (primary screen value, head "DNA Pol") was 46.

`O=c1cc(CN2CCCCC2)c2cc3c(cc2o1)OCO3` [Molecule 56] was tested, and the IC50 was 38.1 µM.

For `Cc1ccsc1Cn1c(C)ccc1C` [Molecule 70], the IC50 was 31.6 µM.
